{"source": "patent US20220273590A1", "about": "“COMPOUNDS FOR PREVENTION AND TREATMENT OF POST-OPERATIVE COGNITIVE DYSFUNCTION” (ABREXA PHARMACEUTICALS, INC., priority 2019, published 2022)", "key": {"animal model of POCD": {"system": "animal model of POCD", "test": "Morris Water Maze (MWM) after abdominal surgery", "format": "in vivo, Wistar rats", "settings": "chronically treated rats", "experimental": "Male Wistar rats (˜350 g) were randomly divided into 4 experimental groups; non-surgery; control abdominal surgery; surgery+acute J147 treatment (7 mg/rat by gavage, 4-5 hours before surgery); surgery+chronic J147 (500 mg/kg food, 1 week before surgery until the end of the study). Timed blood samples were collected. Days 9-11 post surgery, general behavior (Open field: OF) and cognitive performance (Novel Object/Novel Location Recognition: NOR/NLR; Morris Water Maze: MWM) were tested. Day 14, rats were sacrificed and blood and brain tissue were collected for further analyses. (Neuro)inflammation was examined by circulating cytokine levels and microglia activation in the brain.\nAbdominal surgery was performed as described previously by Hovens et al., 2014. Rats were anaesthetized using sevoflurane (±2.5% in air/O2=2/1) and received 0.01 mg/kg buprenorphine s.c. A heating blanket was used to preserve body temperature. An incision was made along the linea alba and the intestines were exteriorised. […]\nThe second day started with a probe trial to assess early spatial memory. […] We measured how often the rat crossed the place of the platform and how much time he spent in the target quadrant. […]"}, "[1]": {"test": "Body weight and food intake in the POCD study", "format": "in vivo, Wistar rats", "from_the_text": "A total of 60 male Wistar rats (Wu-Wistar, Envigo, The Netherlands) were studied in 5 cohorts. For that, rats were ordered in 5 groups of different weight classes (220-280 g) to ensure that each group would be around 350 g at the time of surgery. Rats arrived at the facility at least 2 weeks before start of the experiments, and were put on reversed light:dark cycle 12:12 with the lights out at 09:00 am. Rats were housed in groups of 2-3 in standard cages under controlled conditions (temperature of 20+/−2 degrees and humidity of 50% +/−10%). The rats were fed with water and Teklad (Envigo, 2018) chow food ad libitum. After surgery, rats were housed individually. Approval of all experiments was given by the applicable animal and welfare committee of the Netherlands.\nOne week before surgery, chronic treatment J147 treatment started and continued until the end of the experiment. The day of surgery, rats for acute treatment received their J147 (4-5 hours before surgery) by gavage, while the designated control rats received vehicle gavage. Rats were subjected to abdominal surgery, and allowed to recover. After that rats were housed individually. Non-surgery control were placed in individual cages at the same time. Blood samples were collected from the jugular vein catheter at the time of surgery (plasma levels of J147) and at 1, 6 and 24 hours after surgery (plasma inflammatory markers). The first week post-surgery, rats were weighed daily and food intake was measured. Day 7-12 post-surgery rats were subjected to behavioral testing regarding general exploratory behavior and cognitive performance. On Day 14 rats were sacrificed, blood samples were collected from cardiac puncture, CSF was collected, and brain tissue was collected and processed for immunohistochemistry or molecular analyses.\nFor chronic oral treatment, J147 was added to the food (Teklad 2018, Envigo) at a concentration of 500 mg/kg. J147 was provided by Abrexa and Envigo prepared the food. […] After surgery food intake was measured daily during the last hour of the light phase. […]"}}, "data": [{"smiles": "COc1cccc(/C=N/N(C(=O)C(F)(F)F)c2ccc(C)cc2C)c1", "note": "[J147]", "values": [{"measurement": "spatial and reversal learning (MWM), effect of treatment", "setting": "animal model of POCD", "value": "not affected"}, {"measurement": "spatial memory in the MWM", "setting": "animal model of POCD", "value": "significantly improved spatial memory"}, {"measurement": "body weight gained during first week on the J147 diet", "setting": "[1]; chronic J147 500 mg/kg food, week before surgery, control fed rats 33.5±3.0 g", "value": "32.0 ± 1.8", "unit": "g"}, {"measurement": "average food eaten during the first 10 days after surgery", "setting": "[1]; chronic J147 diet, individual housing, surgery control food 20±1 g", "value": "20 ± 1", "unit": "g"}, {"measurement": "body weight loss after surgery", "setting": "[1]; chronically treated rats (J147 500 mg/kg food)", "value": "lost significantly less body weight after surgery"}]}]}
